Patent US20170152269A1, “FUSED BICYCLIC COMPOUNDS AND THEIR USE AS CDK INHIBITORS” (priority 2016, published 2017)

Assays:
CDK6 = molecular target: T1, CDK6 (Homo sapiens, UniProt Q00534); assay: Lance TR-FRET kinase assay, CDK6; type: biochemical
T1 construct: purchased ThermoFisher (Waltham, Mass.)
Protocol: (§1) Time Resolved-Fluorescent Resonance Energy Transfer (TR-FRET) was used to determine inhibitory ability of compounds A1˜A19, B1s and B1˜B12 against the enzymatic activity of CDK1, CDK2, CDK4, CDK5, CDK6, CDK7, and CDK9.
(§2) Inhibitory activity of compounds against CDK1/2/4/5/6/7 was assessed using Lance TR-FRET assay kits from Perkin Elmer Life Sciences (Waltham, Mass.). CDK1/2/4/5/6/7 enzymes were purchased from ThermoFisher (Waltham, Mass.). 2.5 μL of compound solutions and 2.5 μL of enzyme solutions in kinase assay buffer, which was 50 mM HEPES (pH 7.5) with 1 mM EGTA, 1 mM MgCl2, 2 mM DTT, and 0.01% Tween-20, were added into a white OptiPlate-384 plate followed by adding 5 μL of fluorescently labeled peptide substrates (Ulight-4E-BP1 for CDK4/6 and Ulight-MBP for CDK1/2/7/9) and ATP mixture solutions. Final concentrations of substrates and DMSO were 100 nM and 0.5%, respectively. Concentrations of ATP and different CDK enzymes were adjusted accordingly to achieve optimal enzymatic activities. Final CDK concentrations were 100, 500, 600, 100, 50, and 200 ng/well and ATP concentrations were 30, 50, 100, 20, 100, and 50 μM for CDK1/2/4/5/6/7, respectively. Assay plates were covered to protect from light and spun for 1 min at 700 RPM. Reactions were allowed to perform for 60 minutes in dark with gentle shaking at room temperature after which 5 μL of 40 mM EDTA in detection buffer was added to stop reactions followed 5 μL of the Eu labeled antibodies giving final concentrations of 2 nM to detect the phosphorylation of the peptide substrates. Assay plates were read with the EnVision™ Multilabel Reader in TR-FRET mode (excitation at 320 nm and emission at 665 nm). The percent of inhibition was calculated from the means of data points using the formula: 100−(Signalcompound−NoSignalbackground)*100/(Signalvehicle−NoSignalbackground). The IC50s were determined with GraphPad Prism by the non-linear sigmoidal curve fitting of data from 10 doses.

CDK9/cyclin T1 = molecular target: T2, CDK9/cyclin T1 (Homo sapiens, UniProt P50750); assay: LanthaScreen Eu kinase binding assay, CDK9; conditions: tracer 236 displacement, CDK9/cyclin T1 5 nM, 1 hour; read-out: CDK 9 inhibitory activity (IC50)
T2 construct: purchased ThermoFisher (Waltham, Mass.)
Protocol: as §1
The CDK9 kinase inhibitory activity of compounds was tested in the LanthaScreen Eu kinase binding assay from ThermoFisher. LanthaScreen® Eu Kinase binding assays are based on the binding and displacement of a proprietary, Alexa Fluor® 647-labeled, ATP-competitive kinase inhibitor scaffold (kinase tracer) to CDK9. CDK9/cyclin T1, Kinase tracer 236 and LanthaScreen® Eu-anti-His Antibody were purchased form ThermoFisher (Waltham, Mass.). 5 μL of CDK9/cyclin T1 (final 5 nM)/antibody (final 2 nM) mixture, 5 μL of compound in kinase buffer, and 5 μL of tracer (final 30 nM) were added to wells of a white OptiPlate-384 plate in this specific order. Assay plates were covered to protect from light, spun for 1 min at 700 RPM and incubated at room temperature for 1 hour. Assay plates were read with the EnVision™ Multilabel Reader in TR-FRET mode (excitation at 320 nm and emission at 665 nm). The percent of inhibition was calculated from the means of data points using the formula: 100−(Signalcompound−NoSignalbackgound)*100/(Signalvehicle−NoSignalbackground). The IC50s were determined with GraphPad Prism by the non-linear sigmoidal curve fitting of data from 10 doses.

CDK7 = molecular target: T3, CDK7 (Homo sapiens, UniProt P50613); assay: Lance TR-FRET kinase assay, CDK7; type: biochemical; conditions: ATP 50 μM, 60 min; for IC50: read-out: CDK 7 inhibitory activity (IC50)
T3 construct: purchased ThermoFisher (Waltham, Mass.)
Protocol: as §2, with “2.5 μL of compound solutions and 2.5 μL of enzyme solutions in kinase assay buffer, which was 50 mM HEPES (pH 7.5) with 1 mM EGTA, 1 mM MgCl2, 2 mM DTT, and 0.01% Tween-20, were added into a white OptiPlate-384 plate followed by adding 5 μL of fluorescently labeled peptide substrates (Ulight-4E-BP1 for CDK4/6 and Ulight-MBP for CDK1/2/7/9) and ATP mixture solutions.” left out, “Assay plates were read with the EnVision™ Multilabel Reader in TR-FRET mode (excitation at 320 nm and emission at 665 nm).” left out

CDK1 = molecular target: T4, CDK1 (Homo sapiens, UniProt P06493); assay: Lance TR-FRET kinase assay, CDK1; type: biochemical; conditions: ATP 30 μM, 60 min, read-out: CDK 1 inhibitory activity (IC50)
T4 construct: purchased ThermoFisher (Waltham, Mass.)
Protocol: as §1, §2

CDK2 = molecular target: T5, CDK2 (Homo sapiens, UniProt P24941); assay: Lance TR-FRET kinase assay, CDK2; type: biochemical; conditions: ATP 50 μM, 60 min, read-out: CDK 2 inhibitory activity (IC50)
T5 construct: purchased ThermoFisher (Waltham, Mass.)
Protocol: as §1, §2

CDK4 = molecular target: T6, CDK4 (Homo sapiens, UniProt P11802); assay: Lance TR-FRET kinase assay, CDK4; type: biochemical; conditions: ATP 100 μM, 60 min, read-out: CDK 4 inhibitory activity (IC50)
T6 construct: purchased ThermoFisher (Waltham, Mass.)
Protocol: as §2, with “2.5 μL of compound solutions and 2.5 μL of enzyme solutions in kinase assay buffer, which was 50 mM HEPES (pH 7.5) with 1 mM EGTA, 1 mM MgCl2, 2 mM DTT, and 0.01% Tween-20, were added into a white OptiPlate-384 plate followed by adding 5 μL of fluorescently labeled peptide substrates (Ulight-4E-BP1 for CDK4/6 and Ulight-MBP for CDK1/2/7/9) and ATP mixture solutions.” left out, “Assay plates were read with the EnVision™ Multilabel Reader in TR-FRET mode (excitation at 320 nm and emission at 665 nm).” left out

CDK5 = molecular target: T7, CDK5 (Homo sapiens, UniProt Q00535); assay: Lance TR-FRET kinase assay, CDK5; type: biochemical; conditions: ATP 20 μM, 60 min, read-out: CDK 5 inhibitory activity (IC50)
T7 construct: purchased ThermoFisher (Waltham, Mass.)
Protocol: as §1, §2

T6 sequence (P11802 whole entry): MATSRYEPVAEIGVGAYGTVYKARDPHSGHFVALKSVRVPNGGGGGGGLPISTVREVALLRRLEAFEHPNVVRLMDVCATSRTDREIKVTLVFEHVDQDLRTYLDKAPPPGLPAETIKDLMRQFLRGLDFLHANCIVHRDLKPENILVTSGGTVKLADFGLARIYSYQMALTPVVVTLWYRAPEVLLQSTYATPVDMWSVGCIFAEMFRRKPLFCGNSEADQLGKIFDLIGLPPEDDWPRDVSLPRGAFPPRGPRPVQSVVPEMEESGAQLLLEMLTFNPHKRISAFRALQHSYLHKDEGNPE
T6 sequence (P24385 whole entry partner): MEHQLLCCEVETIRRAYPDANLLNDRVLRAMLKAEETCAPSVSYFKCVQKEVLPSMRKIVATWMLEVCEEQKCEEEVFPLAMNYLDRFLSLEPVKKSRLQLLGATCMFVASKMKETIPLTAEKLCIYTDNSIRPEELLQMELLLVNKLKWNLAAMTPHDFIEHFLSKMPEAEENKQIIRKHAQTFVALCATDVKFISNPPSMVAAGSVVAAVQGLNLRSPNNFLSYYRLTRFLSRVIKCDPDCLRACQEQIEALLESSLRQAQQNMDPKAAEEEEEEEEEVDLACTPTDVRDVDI
T1 sequence (Q00534 whole entry): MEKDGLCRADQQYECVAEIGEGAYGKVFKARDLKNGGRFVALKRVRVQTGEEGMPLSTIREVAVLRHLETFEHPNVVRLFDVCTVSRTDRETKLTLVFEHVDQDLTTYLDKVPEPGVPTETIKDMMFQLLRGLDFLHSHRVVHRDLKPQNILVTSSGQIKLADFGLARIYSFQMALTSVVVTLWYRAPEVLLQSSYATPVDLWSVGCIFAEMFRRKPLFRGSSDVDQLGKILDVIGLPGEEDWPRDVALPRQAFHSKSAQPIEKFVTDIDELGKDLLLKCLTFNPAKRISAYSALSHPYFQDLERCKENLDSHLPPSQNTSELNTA
T1 sequence (P24385 whole entry partner): as the sequence (P24385 whole entry partner) above
T3 sequence (P50613 whole entry): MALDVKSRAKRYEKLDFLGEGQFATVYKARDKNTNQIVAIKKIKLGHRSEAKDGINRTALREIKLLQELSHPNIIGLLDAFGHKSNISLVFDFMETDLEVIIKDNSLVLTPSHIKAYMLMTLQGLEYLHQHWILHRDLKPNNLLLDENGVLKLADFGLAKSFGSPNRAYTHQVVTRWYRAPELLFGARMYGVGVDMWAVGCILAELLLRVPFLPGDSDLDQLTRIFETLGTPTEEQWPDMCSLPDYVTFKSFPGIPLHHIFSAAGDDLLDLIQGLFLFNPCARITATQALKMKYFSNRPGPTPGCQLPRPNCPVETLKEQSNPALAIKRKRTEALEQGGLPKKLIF
T3 sequence (P51946 whole entry partner): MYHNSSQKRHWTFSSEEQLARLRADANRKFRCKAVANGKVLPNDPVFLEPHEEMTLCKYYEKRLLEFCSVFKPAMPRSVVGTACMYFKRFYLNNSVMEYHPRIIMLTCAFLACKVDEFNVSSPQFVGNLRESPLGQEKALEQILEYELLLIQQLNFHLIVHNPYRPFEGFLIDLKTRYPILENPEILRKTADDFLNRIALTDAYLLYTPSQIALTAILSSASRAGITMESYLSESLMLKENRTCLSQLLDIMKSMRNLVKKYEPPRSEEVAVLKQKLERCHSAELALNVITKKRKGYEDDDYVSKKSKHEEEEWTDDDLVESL
T3 sequence (P51948 whole entry partner): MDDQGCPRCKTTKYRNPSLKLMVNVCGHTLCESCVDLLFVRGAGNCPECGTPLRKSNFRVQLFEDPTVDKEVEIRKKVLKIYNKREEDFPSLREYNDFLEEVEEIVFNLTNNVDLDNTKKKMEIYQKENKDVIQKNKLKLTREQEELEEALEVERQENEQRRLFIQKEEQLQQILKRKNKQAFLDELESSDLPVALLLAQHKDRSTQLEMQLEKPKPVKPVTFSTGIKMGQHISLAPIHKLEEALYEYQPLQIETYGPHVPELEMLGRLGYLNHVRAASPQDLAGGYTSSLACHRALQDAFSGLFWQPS
T7 sequence (Q00535 whole entry): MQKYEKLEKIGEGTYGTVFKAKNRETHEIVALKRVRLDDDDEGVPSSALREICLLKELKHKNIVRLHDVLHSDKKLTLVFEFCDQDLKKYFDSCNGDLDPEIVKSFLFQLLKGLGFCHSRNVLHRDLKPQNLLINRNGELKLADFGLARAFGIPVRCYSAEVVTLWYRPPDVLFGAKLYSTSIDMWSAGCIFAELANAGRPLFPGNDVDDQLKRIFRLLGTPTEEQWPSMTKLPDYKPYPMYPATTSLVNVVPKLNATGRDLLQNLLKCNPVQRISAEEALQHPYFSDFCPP
T7 sequence (Q15078 whole entry partner): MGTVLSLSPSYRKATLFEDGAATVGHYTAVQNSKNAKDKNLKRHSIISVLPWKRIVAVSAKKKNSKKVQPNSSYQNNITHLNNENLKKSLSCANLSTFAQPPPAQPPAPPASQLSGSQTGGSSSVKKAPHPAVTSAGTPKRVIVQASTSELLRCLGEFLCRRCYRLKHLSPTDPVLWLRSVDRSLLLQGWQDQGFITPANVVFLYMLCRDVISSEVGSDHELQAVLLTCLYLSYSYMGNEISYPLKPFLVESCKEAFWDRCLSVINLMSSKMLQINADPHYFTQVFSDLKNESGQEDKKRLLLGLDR
T4 sequence (P06493 whole entry): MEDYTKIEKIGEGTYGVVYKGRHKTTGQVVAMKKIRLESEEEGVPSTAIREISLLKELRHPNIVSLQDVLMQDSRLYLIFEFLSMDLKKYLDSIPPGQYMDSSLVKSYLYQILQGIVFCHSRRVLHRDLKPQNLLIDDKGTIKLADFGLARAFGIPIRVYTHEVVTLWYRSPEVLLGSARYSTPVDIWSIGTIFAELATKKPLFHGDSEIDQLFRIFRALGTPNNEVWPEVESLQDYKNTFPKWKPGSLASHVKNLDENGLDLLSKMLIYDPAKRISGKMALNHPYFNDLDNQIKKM
T4 sequence (P14635 whole entry partner): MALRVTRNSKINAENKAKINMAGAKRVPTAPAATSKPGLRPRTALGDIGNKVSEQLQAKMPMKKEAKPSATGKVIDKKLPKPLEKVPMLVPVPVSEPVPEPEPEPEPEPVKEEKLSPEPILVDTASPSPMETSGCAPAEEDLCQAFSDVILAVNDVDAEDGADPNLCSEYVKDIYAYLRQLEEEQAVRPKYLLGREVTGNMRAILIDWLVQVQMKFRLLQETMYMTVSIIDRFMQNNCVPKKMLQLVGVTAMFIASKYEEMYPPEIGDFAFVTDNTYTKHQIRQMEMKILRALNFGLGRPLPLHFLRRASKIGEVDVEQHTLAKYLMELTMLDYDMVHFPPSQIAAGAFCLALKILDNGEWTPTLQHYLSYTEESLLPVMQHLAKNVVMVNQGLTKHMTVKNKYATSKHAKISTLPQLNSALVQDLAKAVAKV
T2 sequence (P50750 whole entry): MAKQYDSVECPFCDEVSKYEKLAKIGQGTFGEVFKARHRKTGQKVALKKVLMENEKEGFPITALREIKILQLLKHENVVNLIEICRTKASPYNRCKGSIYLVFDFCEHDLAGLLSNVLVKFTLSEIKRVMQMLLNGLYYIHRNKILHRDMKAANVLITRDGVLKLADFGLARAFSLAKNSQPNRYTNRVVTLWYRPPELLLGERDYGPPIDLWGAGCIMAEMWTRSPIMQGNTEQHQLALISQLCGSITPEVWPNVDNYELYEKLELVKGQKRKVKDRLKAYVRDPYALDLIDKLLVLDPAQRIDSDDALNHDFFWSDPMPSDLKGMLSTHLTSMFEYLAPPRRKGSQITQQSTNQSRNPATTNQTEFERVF
T2 sequence (O60563 whole entry partner): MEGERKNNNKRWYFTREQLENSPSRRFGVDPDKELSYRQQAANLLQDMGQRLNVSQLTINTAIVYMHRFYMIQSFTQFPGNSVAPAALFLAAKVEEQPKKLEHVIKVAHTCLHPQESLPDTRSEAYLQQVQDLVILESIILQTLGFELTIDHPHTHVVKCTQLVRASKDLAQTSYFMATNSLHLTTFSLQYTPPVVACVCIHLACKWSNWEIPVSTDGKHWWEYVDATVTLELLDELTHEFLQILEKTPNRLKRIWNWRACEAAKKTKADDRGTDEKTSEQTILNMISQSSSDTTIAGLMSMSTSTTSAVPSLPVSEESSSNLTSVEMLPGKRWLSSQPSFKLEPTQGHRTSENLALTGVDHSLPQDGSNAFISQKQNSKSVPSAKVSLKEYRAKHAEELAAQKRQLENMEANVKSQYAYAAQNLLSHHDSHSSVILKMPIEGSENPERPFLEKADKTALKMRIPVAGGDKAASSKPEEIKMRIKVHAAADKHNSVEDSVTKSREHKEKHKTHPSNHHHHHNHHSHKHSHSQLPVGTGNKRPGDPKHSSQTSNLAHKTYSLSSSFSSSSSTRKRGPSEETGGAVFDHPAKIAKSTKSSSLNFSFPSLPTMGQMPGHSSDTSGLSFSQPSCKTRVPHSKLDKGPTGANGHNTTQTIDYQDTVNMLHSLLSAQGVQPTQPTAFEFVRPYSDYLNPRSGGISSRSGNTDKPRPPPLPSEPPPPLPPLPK

| SMILES | IC50 (CDK6) [nM] | IC50 (CDK9/cyclin T1) [nM] | CDK 7 inhibitory activity (IC50) (CDK7) | IC50 (CDK1) [nM] | IC50 (CDK2) [nM] | IC50 (CDK4) [nM] | IC50 (CDK7) [nM] | IC50 (CDK5) [nM] |
| --- | --- | --- | --- | --- | --- | --- | --- | --- |
| N#Cc1sc2cnc(Nc3cnc(N4CCOCC4)nc3)cc2c1C1CCCC1 [Compound B8, 3-cyclopentyl-5-((2-morpholinopyrimidin-5-yl)amino)thieno[2,3-c]pyridine-2-carbonitrile] | 791 | 4590 | inactive | 22000 | 824 | 8660 |  |  |
| CN1CCN(c2ccc(Nc3cc4c(C5CCCC5)c(C#N)sc4cn3)nc2)CC1 [Compound B5, 3-cyclopentyl-5-((5-(4-methylpiperazin-1-yl)pyridin-2-yl)amino)thieno[2,3-c]pyridine-2-carbonitrile] | 0.3 | 1 |  | 9.1 | 3.3 | 0.7 | 22.1 |  |
| CC(=O)N1CCN(c2ccc(Nc3cc4c(C5CCCC5)c(C#N)sc4cn3)nc2)CC1 [Compound B12, 5-((5-(4-acetylpiperazin-1-yl)pyridin-2-yl)amino)-3-cyclopentylthieno[2,3-c]pyridine-2-carbonitrile] | 1.4 | 2.5 |  | 26.2 | 10.3 | 4.1 | 9790 |  |
| N#Cc1sc2cnc(Nc3ccc(N4CCNCC4)cn3)cc2c1C1CCCC1 [Compound B1, 3-cyclopentyl-5-((5-(piperazin-1-yl)pyridin-2-yl)amino)thieno[2,3-c]pyridine-2-carbonitrile] | 0.3 | 1.3 |  | 5.4 | 2.8 | 1.1 | 14.9 | 24.4 |
| N#Cc1sc2cnc(Nc3ccc(N4CCNCC4)nc3)cc2c1C1CCCC1 [Compound B2, 3-cyclopentyl-5-((6-(piperazin-1-yl)pyridin-3-yl)amino)thieno[2,3-c]pyridine-2-carbonitrile] | 1 | 6.6 |  | 77.4 | 13.3 | 2.4 | 53.9 |  |
| CN1CCN(c2cccc(Nc3cc4c(C5CCCC5)c(C#N)sc4cn3)c2)CC1 [Compound B9, 3-cyclopentyl-5-((3-(4-methylpiperazin-1-yl)phenyl)amino)thieno[2,3-c]pyridine-2-carbonitrile] | 120 | 96.5 |  | 170 | 70.8 | 582 | 872 |  |
| CN1CCN(c2ccc(Nc3cc4c(C5CCCC5)c(C#N)sc4cn3)cc2)CC1 [Compound B4, 3-cyclopentyl-5-((4-(4-methylpiperazin-1-yl)phenyl)amino)thieno[2,3-c]pyridine-2-carbonitrile] | 0.7 | 8.6 |  | 31.5 | 10.4 | 1.9 | 47 |  |
| CN(C)C(=O)c1sc2cnc(Nc3ccc(N4CCNCC4)cn3)cc2c1C1CCCCC1 [Compound A5, 3-cyclohexyl-N,N-dimethyl-5-((5-(piperazin-1-yl)pyridin-2-yl)amino)thieno[2,3-c]pyridine-2-carboxamide] | 1.1 | 13.4 |  | 39.5 | 942 | 1.4 | 3290 | 266 |
| CS(=O)(=O)N1CCN(c2ccc(Nc3cc4c(C5CCCC5)c(C#N)sc4cn3)nc2)CC1 [Compound B11, 3-cyclopentyl-5-((5-(4-(methylsulfonyl)piperazin-1-yl)pyridin-2-yl)amino)thieno[2,3-c]pyridine-2-carbonitrile] | 5.5 | 8.1 | inactive | 101 | 49.9 | 17.7 |  |  |
| N#Cc1sc2cnc(Nc3ccc(N4CCOCC4)cc3)cc2c1C1CCCC1 [Compound B6, 3-cyclopentyl-5-((4-morpholinophenyl)amino)thieno[2,3-c]pyridine-2-carbonitrile] | 19 | 951 | inactive | 1680 | 39.6 | 222 |  |  |
| N#Cc1sc2cnc(Nc3ccc(N4CCOCC4)nc3)cc2c1C1CCCC1 [Compound B7, 3-cyclopentyl-5-((6-morpholinopyridin-3-yl)amino)thieno[2,3-c]pyridine-2-carbonitrile] | 19.4 | 95.6 | inactive | 324 | 19.4 | 61.9 |  |  |
| CN(C)C(=O)c1sc2cnc(Nc3ccc(N4CCNCC4)cn3)cc2c1C1CCCC1 [Compound A1, 3-cyclopentyl-N,N-dimethyl-5-((5-(piperazin-1-yl)pyridin-2-yl)amino)thieno[2,3-c]pyridine-2-carboxamide] | 0.66 | 5.3 |  | 162 | 346 | 1.2 | 1100 | 262 |
| N#Cc1sc2cnc(Nc3ccc(N4CCNCC4)cc3)cc2c1C1CCCC1 [Compound B3, 3-cyclopentyl-5-((4-(piperazin-1-yl)phenyl)amino)thieno[2,3-c]pyridine-2-carbonitrile] | 0.2 | 1.8 |  | 15.1 | 5.2 | 1.9 | 31.4 |  |
| N#Cc1sc2cnc(Nc3cccc(N4CCOCC4)c3)cc2c1C1CCCC1 [Compound B10, 3-cyclopentyl-5-((3-morpholinophenyl)amino)thieno[2,3-c]pyridine-2-carbonitrile] | 838 | 308 | inactive | 834 | 308 | 1540 |  |  |
